Reference: ChEMBL document CHEMBL4804284
Calls of active or inactive are those of the source. The calls are words filed in the database; no cut-off is given here.

How the values were obtained:
[1] = target: Serine/threonine-protein kinase 3 (Homo sapiens) (UniProt Q13188); assay: Inhibition of DNA-tagged human MST2 assessed as percent of control at 50000 nM by qPCR analysis relative to control; design: scale not given: the % may be the effect or the level left
[2] = target: Serine/threonine-protein kinase pim-1 (Homo sapiens) (UniProt P11309); assay: Inhibition of DNA-tagged human PIM1 assessed as percent of control at 50000 nM by qPCR analysis relative to control; design: scale not given: the % may be the effect or the level left
Chain of Serine/threonine-protein kinase pim-1 (Homo sapiens) (P11309 whole entry, looked up): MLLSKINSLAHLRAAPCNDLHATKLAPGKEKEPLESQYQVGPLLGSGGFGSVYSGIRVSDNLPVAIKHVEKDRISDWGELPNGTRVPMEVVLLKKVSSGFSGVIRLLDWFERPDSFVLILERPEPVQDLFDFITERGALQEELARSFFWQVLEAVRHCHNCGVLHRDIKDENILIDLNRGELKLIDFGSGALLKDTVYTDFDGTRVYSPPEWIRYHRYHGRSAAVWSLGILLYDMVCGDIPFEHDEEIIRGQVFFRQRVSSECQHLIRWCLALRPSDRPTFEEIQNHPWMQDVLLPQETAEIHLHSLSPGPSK

[3] = target: Serine/threonine-protein kinase NIM1 (Homo sapiens) (UniProt Q8IY84); assay: Inhibition of DNA-tagged human NIM1 assessed as percent of control at 50000 nM by qPCR analysis relative to control; design: scale not given: the % may be the effect or the level left
[4] = target: BDNF/NT-3 growth factors receptor (Homo sapiens) (UniProt Q16620); assay: Inhibition of DNA-tagged human TRKB assessed as percent of control at 50000 nM by qPCR analysis relative to control; design: scale not given: the % may be the effect or the level left
Chain of BDNF/NT-3 growth factors receptor (Homo sapiens) (Q16620 32-822 limits assumed): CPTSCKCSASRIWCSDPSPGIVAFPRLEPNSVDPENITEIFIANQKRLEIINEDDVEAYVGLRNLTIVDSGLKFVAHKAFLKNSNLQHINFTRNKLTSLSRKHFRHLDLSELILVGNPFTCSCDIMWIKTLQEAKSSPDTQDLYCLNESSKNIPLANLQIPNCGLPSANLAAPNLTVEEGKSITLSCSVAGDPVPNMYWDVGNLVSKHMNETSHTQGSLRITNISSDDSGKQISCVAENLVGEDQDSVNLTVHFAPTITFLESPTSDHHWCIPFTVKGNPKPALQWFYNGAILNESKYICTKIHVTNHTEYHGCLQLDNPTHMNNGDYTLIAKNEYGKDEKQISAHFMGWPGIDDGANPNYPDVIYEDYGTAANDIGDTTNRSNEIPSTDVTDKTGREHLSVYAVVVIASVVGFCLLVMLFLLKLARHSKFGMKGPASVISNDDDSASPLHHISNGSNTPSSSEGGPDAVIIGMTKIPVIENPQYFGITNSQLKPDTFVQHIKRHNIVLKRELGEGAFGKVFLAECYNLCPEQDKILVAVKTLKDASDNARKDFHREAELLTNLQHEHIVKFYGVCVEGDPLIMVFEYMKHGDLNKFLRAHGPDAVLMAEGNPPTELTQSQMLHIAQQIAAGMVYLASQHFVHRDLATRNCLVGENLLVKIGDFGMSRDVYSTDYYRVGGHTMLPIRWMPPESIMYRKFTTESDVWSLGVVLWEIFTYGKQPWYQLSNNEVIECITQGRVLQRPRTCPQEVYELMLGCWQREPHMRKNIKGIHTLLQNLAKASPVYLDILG

[5] = target: Dual specificity mitogen-activated protein kinase kinase 1 (Homo sapiens) (UniProt Q02750); assay: Inhibition of DNA-tagged human MEK1 assessed as percent of control at 50000 nM by qPCR analysis relative to control; design: scale not given: the % may be the effect or the level left
[6] = target: Mitogen-activated protein kinase kinase kinase 6 (Homo sapiens) (UniProt O95382); assay: Inhibition of DNA-tagged human ASK2 assessed as percent of control at 50000 nM by qPCR analysis relative to control; design: scale not given: the % may be the effect or the level left
[7] = target: Mitogen-activated protein kinase kinase kinase 13 (Homo sapiens) (UniProt O43283); assay: Inhibition of DNA-tagged human LZK assessed as percent of control at 50000 nM by qPCR analysis relative to control; design: scale not given: the % may be the effect or the level left
Chain of Mitogen-activated protein kinase kinase kinase 13 (Homo sapiens) (O43283 whole entry): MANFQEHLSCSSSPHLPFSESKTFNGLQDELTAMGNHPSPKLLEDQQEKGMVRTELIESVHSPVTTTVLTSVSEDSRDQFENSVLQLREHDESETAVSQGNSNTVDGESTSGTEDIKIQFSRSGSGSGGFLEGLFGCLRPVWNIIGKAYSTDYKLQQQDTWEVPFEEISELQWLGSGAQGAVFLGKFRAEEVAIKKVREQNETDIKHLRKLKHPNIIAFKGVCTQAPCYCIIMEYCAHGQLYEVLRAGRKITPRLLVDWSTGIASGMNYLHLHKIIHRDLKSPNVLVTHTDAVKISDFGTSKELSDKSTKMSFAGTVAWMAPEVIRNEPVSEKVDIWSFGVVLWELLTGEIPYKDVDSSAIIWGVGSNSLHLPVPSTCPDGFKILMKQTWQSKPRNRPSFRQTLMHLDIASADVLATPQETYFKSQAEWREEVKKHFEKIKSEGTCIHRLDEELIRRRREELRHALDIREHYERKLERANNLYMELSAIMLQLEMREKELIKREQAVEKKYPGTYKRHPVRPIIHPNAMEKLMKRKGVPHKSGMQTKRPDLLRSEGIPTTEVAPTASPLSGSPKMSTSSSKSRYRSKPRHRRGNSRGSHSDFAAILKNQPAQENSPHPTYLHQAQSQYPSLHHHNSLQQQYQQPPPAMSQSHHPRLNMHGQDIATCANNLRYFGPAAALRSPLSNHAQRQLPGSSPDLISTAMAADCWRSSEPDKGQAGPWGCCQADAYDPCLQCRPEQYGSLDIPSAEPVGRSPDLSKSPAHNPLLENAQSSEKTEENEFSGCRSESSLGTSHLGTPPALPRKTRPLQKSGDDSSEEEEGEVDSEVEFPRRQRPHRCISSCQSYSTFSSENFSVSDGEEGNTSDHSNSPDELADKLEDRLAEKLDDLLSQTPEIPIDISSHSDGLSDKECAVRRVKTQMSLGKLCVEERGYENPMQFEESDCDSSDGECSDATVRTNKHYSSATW

[8] = target: Serine/threonine-protein kinase DCLK2 (Homo sapiens) (UniProt Q8N568); assay: Inhibition of DNA-tagged human DCAMKL2 assessed as percent of control at 50000 nM by qPCR analysis relative to control; design: scale not given: the % may be the effect or the level left
[9] = target: Rhodopsin kinase GRK7 (Homo sapiens) (UniProt Q8WTQ7); assay: Inhibition of DNA-tagged human GRK7 assessed as percent of control at 50000 nM by qPCR analysis relative to control; design: scale not given: the % may be the effect or the level left
Chain of Rhodopsin kinase GRK7 (Homo sapiens) (Q8WTQ7 whole entry): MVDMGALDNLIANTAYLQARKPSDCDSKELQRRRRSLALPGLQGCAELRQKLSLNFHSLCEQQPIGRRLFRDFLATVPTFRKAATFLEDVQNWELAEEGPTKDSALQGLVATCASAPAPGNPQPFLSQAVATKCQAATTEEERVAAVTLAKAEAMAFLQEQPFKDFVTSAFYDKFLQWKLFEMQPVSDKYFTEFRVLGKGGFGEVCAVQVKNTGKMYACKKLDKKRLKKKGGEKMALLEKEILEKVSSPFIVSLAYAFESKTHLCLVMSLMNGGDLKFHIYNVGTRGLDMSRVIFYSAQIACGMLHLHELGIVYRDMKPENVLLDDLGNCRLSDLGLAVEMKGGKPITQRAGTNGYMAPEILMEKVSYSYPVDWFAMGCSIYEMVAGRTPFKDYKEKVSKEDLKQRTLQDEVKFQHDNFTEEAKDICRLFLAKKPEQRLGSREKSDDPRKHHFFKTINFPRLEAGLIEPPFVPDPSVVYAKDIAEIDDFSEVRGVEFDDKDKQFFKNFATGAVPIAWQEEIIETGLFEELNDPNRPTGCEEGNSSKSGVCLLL

[10] = target: Serine/threonine-protein kinase TAO2 (Homo sapiens) (UniProt Q9UL54); assay: Inhibition of DNA-tagged human TAOK2 assessed as percent of control at 50000 nM by qPCR analysis relative to control; design: scale not given: the % may be the effect or the level left
[11] = target: Dual specificity mitogen-activated protein kinase kinase 7 (Homo sapiens) (UniProt O14733); assay: Inhibition of DNA-tagged human MKK7 assessed as percent of control at 50000 nM by qPCR analysis relative to control; design: scale not given: the % may be the effect or the level left
OCI-AML-3 = assay: Cytotoxicity against human OCI-AML-3 cells at 0.1-100 uM assessed as decrease in cell viability relative to control; format: functional, cell-based
[12] = target: Tyrosine-protein kinase Fer (Homo sapiens) (UniProt P16591); assay: Inhibition of DNA-tagged human FER assessed as percent of control at 50000 nM by qPCR analysis relative to control; design: scale not given: the % may be the effect or the level left
[13] = target: Phosphatidylinositol 4,5-bisphosphate 3-kinase catalytic subunit gamma isoform (Homo sapiens) (UniProt P48736); assay: Inhibition of DNA-tagged human PIK3CG assessed as percent of control at 50000 nM by qPCR analysis relative to control; design: scale not given: the % may be the effect or the level left
[14] = target: Serine/threonine-protein kinase TAO1 (Homo sapiens) (UniProt Q7L7X3); assay: Inhibition of DNA-tagged human TAOK1 assessed as percent of control at 50000 nM by qPCR analysis relative to control; design: scale not given: the % may be the effect or the level left
[15] = target: Calcium/calmodulin-dependent protein kinase type II subunit delta (Homo sapiens) (UniProt Q13557); assay: Inhibition of DNA-tagged human CAMK2D assessed as percent of control at 50000 nM by qPCR analysis relative to control; design: scale not given: the % may be the effect or the level left
[16] = target: Macrophage colony-stimulating factor 1 receptor (Homo sapiens) (UniProt P07333); assay: Inhibition of DNA-tagged human CSF1R assessed as percent of control at 50000 nM by qPCR analysis relative to control; design: scale not given: the % may be the effect or the level left
[17] = target: Serine/threonine-protein kinase PLK2 (Homo sapiens) (UniProt Q9NYY3); assay: Inhibition of DNA-tagged human PLK2 assessed as percent of control at 50000 nM by qPCR analysis relative to control; design: scale not given: the % may be the effect or the level left
Chain of Serine/threonine-protein kinase PLK2 (Homo sapiens) (Q9NYY3 whole entry, looked up): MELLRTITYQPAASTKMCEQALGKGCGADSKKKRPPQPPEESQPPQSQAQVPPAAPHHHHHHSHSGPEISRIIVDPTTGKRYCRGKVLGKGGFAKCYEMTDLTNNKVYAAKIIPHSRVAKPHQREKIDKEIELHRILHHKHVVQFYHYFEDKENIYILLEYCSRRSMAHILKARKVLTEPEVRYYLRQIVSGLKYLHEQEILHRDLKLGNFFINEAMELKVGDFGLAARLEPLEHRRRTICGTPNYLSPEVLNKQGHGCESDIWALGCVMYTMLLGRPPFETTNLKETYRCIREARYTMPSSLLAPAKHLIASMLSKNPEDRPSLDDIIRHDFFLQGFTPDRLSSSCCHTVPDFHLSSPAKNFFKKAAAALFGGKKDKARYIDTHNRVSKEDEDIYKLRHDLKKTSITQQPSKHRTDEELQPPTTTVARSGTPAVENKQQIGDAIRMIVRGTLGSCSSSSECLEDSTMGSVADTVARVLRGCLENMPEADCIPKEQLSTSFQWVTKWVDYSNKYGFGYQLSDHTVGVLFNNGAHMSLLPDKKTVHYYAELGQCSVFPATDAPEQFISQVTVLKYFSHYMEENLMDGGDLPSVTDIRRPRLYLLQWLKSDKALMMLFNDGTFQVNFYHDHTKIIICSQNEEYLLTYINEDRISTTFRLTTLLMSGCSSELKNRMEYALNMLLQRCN

[18] = target: Serine/threonine-protein kinase pim-3 (Homo sapiens) (UniProt Q86V86); assay: Inhibition of DNA-tagged human PIM3 assessed as percent of control at 50000 nM by qPCR analysis relative to control; design: scale not given: the % may be the effect or the level left
[19] = target: Cyclin-dependent kinase 8 (Homo sapiens) (UniProt P49336); assay: Inhibition of DNA-tagged human CDK8 assessed as percent of control at 50000 nM by qPCR analysis relative to control; design: scale not given: the % may be the effect or the level left
Chain of Cyclin-dependent kinase 8 (Homo sapiens) (P49336 whole entry): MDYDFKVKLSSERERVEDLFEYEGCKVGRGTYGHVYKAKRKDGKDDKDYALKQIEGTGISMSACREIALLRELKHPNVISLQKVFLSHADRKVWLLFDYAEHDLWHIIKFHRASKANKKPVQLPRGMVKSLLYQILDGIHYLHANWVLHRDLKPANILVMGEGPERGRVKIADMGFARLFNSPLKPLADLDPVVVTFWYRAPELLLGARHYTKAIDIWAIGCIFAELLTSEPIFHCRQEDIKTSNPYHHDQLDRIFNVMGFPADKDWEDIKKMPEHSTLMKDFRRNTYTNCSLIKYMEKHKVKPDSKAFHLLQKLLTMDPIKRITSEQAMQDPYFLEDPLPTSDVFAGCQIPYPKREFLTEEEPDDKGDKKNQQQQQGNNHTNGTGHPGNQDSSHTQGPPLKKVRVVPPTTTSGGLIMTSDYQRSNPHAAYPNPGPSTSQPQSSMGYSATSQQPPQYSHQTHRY

[20] = tested on: Leucine-rich repeat serine/threonine-protein kinase 2 (Homo sapiens), Q5S007 [G2019S]; assay: Inhibition of DNA-tagged human LRRK2 G2019S mutant assessed as percent of control at 50000 nM by qPCR analysis relative to control; design: scale not given: the % may be the effect or the level left
[21] = tested on: Mast/stem cell growth factor receptor Kit (Homo sapiens), P10721 [A829P]; assay: Inhibition of DNA-tagged human KIT A829P mutant assessed as percent of control at 50000 nM by qPCR analysis relative to control; design: scale not given: the % may be the effect or the level left
[22] = target: Calcium/calmodulin-dependent protein kinase type IV (Homo sapiens) (UniProt Q16566); assay: Inhibition of DNA-tagged human CAMK4 assessed as percent of control at 50000 nM by qPCR analysis relative to control; design: scale not given: the % may be the effect or the level left
Chain of Calcium/calmodulin-dependent protein kinase type IV (Homo sapiens) (Q16566 whole entry): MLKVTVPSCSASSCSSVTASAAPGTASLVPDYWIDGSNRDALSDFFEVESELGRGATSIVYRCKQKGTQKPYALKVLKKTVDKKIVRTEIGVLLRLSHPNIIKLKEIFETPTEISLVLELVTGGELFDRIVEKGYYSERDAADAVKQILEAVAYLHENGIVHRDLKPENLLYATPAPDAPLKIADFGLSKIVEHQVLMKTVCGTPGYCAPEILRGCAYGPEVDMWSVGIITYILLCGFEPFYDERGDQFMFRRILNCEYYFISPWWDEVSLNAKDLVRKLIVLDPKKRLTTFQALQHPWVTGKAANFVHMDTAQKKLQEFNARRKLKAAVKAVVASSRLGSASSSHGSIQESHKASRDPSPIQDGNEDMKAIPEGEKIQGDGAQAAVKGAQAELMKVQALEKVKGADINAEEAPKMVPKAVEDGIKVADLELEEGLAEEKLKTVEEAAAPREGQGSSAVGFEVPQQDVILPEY

[23] = target: Death-associated protein kinase 3 (Homo sapiens) (UniProt O43293); assay: Inhibition of DNA-tagged human DAPK3 assessed as percent of control at 50000 nM by qPCR analysis relative to control; design: scale not given: the % may be the effect or the level left
[24] = target: Mitogen-activated protein kinase 15 (Homo sapiens) (UniProt Q8TD08); assay: Inhibition of DNA-tagged human ERK8 assessed as percent of control at 50000 nM by qPCR analysis relative to control; design: scale not given: the % may be the effect or the level left
Chain of Mitogen-activated protein kinase 15 (Homo sapiens) (Q8TD08 whole entry): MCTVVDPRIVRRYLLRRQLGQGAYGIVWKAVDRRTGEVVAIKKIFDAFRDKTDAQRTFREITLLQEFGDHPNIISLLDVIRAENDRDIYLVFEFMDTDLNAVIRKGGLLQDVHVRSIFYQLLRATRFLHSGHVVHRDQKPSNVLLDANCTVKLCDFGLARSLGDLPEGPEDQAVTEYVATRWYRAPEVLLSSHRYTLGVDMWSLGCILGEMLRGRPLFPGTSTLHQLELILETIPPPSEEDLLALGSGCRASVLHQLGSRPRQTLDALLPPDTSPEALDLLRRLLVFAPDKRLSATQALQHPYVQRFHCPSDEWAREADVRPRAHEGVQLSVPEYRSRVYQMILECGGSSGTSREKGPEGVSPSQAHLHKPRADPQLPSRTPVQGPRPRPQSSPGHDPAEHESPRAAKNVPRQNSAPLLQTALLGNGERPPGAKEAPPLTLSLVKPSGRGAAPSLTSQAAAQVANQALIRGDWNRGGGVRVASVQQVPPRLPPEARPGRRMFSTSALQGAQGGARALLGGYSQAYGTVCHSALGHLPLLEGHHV

[25] = target: Ephrin type-A receptor 3 (Homo sapiens) (UniProt P29320); assay: Inhibition of DNA-tagged human EPHA3 assessed as percent of control at 50000 nM by qPCR analysis relative to control; design: scale not given: the % may be the effect or the level left
[26] = tested on: Epidermal growth factor receptor (Homo sapiens), P00533 [L858R,T790M]; assay: Inhibition of DNA-tagged human EGFR L858R/T790M double mutant assessed as percent of control at 50000 nM by qPCR analysis relative to control; design: scale not given: the % may be the effect or the level left
[27] = target: Dual specificity tyrosine-phosphorylation-regulated kinase 1B (Homo sapiens) (UniProt Q9Y463); assay: Inhibition of DNA-tagged human DYRK1B assessed as percent of control at 50000 nM by qPCR analysis relative to control; design: scale not given: the % may be the effect or the level left
[28] = target: Serine/threonine-protein kinase pim-2 (Homo sapiens) (UniProt Q9P1W9); assay: Inhibition of DNA-tagged human PIM2 assessed as percent of control at 50000 nM by qPCR analysis relative to control; design: scale not given: the % may be the effect or the level left
[29] = target: Hepatocyte growth factor receptor (Homo sapiens) (UniProt P08581); assay: Inhibition of DNA-tagged human MET assessed as percent of control at 50000 nM by qPCR analysis relative to control; design: scale not given: the % may be the effect or the level left

Question: What does the source list for `CN1C(=O)/C(=C2/C(=O)Nc3ccccc32)c2ccccc21`?
Answer: Activity [1]: 99%; Activity [2]: 83%; Activity [3]: 86%; Activity [4]: 88%; Activity [5]: 81%; Activity [6]: 100%; Activity [7]: 63%; Activity [8]: 93%; Activity [9]: 100%; Activity [10]: 84%; Activity [11]: 75%; Activity (OCI-AML-3): Active; Activity [12]: 88%; Activity [13]: 100%; Activity [14]: 87%; Activity [15]: 80%; Activity [16]: 98%; Activity [17]: 94%; Activity [18]: 79%; Activity [19]: 100%; Activity [20]: 74%; Activity [21]: 63%; Activity [22]: 88%; Activity [23]: 93%; Activity [24]: 96%; Activity [25]: 91%; Activity [26]: 98%; Activity [27]: 92%; Activity [28]: 100%; Activity [29]: 100%
